We go through 25 compounds from patent US9765092B2, “Tricyclic piperidine compounds” (ACTELION PHARMACEUTICALS LTD, priority 2013, dated 2017).

pIC50: −log10 of the molar value. Where two headings read alike, the source gives them in different places.

In the experiment the target is human TPH1 (Homo sapiens (Human), UniProt P17752). As to the kind of experiment: Biochemical in vitro assay using fluorescence readout (TPH1 inhibition).
The mark [1] stands for this setting: human TPH1, fluorescence readout.
[2] abbreviates: full length human TPH1, 40 μM L-tryptophan, 15° C., 60 minutes, fluorescence at 540 nm, mean if determined several times.

By pIC50 is commonly meant the IC50 on a negative log10 scale, so that one unit is a factor of ten. A high value points to a low IC50.

Chain of human TPH1 (P17752 whole entry): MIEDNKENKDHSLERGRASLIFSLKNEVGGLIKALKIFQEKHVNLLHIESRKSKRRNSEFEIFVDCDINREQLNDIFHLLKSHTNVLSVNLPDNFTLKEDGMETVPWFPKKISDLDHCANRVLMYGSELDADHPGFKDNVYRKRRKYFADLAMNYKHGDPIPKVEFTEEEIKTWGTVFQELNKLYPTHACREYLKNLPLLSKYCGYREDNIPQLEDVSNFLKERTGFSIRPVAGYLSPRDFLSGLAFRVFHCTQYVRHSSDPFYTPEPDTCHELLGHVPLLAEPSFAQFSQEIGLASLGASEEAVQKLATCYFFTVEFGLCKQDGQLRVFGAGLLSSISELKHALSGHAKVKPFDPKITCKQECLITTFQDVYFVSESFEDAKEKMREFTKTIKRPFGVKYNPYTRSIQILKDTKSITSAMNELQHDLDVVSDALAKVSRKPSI

`Cc1nn2c3c(nc2s1)CCN(C(=O)C1(Oc2ccc(C(=O)N(C)C)nc2Cl)CC1)C3c1ccc(Cl)cc1F` (stereo not shown) [Example 1.4.57, 6-chloro-5-(1-(5-(4-chloro-2-fluorophenyl)-2-methyl-5,6,7,8-tetrahydro-[1,3,4]thiadiazolo[2′,3′:2,3]imidazo[4,5-c]pyridine-6-carbonyl)cyclopropoxy)-N,N-dimethylpicolinamide] gave a pIC50 under setting [1] of 7.41.

For the compound `CCOC(=O)c1csc(C2c3c(nc4sc(C)nn34)CCN2C(=O)COc2ccc(N3CCOCC3)nc2Cl)n1` (stereo not shown) [Example 1.27.1, ethyl 2-(6-(2-((2-chloro-6-morpholinopyridin-3-yl)oxy)acetyl)-2-methyl-5,6,7,8-tetrahydro-[1,3,4]thiadiazolo[2′,3′:2,3]imidazo[4,5-c]pyridin-5-yl)thiazole-4-carboxylate], under setting [1], the negative-log IC50 (pIC50) is 8.15.

For `Cc1nn2c3c(nc2s1)CCN(C(=O)COc1ccc(N2CCOCC2)nc1Cl)C3c1csc(C(=O)O)c1` (stereo not shown) [Example 1.38.1, 4-(6-(2-((2-Chloro-6-morpholinopyridin-3-yl)oxy)acetyl)-2-methyl-5,6,7,8-tetrahydro-[1,3,4]thiadiazolo[2′,3′:2,3]imidazo[4,5-c]pyridin-5-yl)thiophene-2-carboxylic acid], under setting [2], the pIC50 is 6.95.

In the case of `Cc1cnc(C2c3c(nc4sc(C)nn34)CCN2C(=O)COc2ccc(NS(C)(=O)=O)cc2Cl)c(F)c1` (stereo not shown) [Example 1.31.10, N-(3-chloro-4-(2-(5-(3-fluoro-5-methylpyridin-2-yl)-2-methyl-7,8-dihydro-[1,3,4]thiadiazolo[2′,3′:2,3]imidazo[4,5-c]pyridin-6(5H)-yl)-2-oxoethoxy)phenyl)methanesulfonamide], under setting [1], the pIC50 is 7.96.

As to `Cc1nn2c3c(nc2s1)CCN(C(=O)COc1ccc(NS(C)(=O)=O)nc1Cl)C3c1ncc(C(=O)N(C)C)s1` (stereo not shown) [Example 1.37.3, 2-(6-(2-((2-Chloro-6-(methylsulfonamido)pyridin-3-yl)oxy)acetyl)-2-methyl-5,6,7,8-tetrahydro-[1,3,4]thiadiazolo[2′,3′:2,3]imidazo[4,5-c]pyridin-5-yl)-N,N-dimethylthiazole-5-carboxamide], the pIC50 under setting [2] is 7.40.

In turn, “N-(5-(2-(5-(4-(aminomethyl)-2-fluorophenyl)-2-methyl-7,8-dihydro-[1,3,4]thiadiazolo[2′,3′:2,3]imidazo[4,5-c]pyridin-6(5H)-yl)-2-oxoethoxy)-6-chloropyridin-2-yl)methanesulfonamide [Example 1.78.1]” had a pIC50 under setting [1] of 8.00.

The compound `O=C(COc1cccnc1Cl)N1CCc2nc3sccn3c2C1c1cc2cccnc2s1` (stereo not shown) [Example 6.14.3, 2-((2-chloropyridin-3-yl)oxy)-1-(5-(thieno[2,3-b]pyridin-2-yl)-7,8-dihydrothiazolo[2′,3′:2,3]imidazo[4,5-c]pyridin-6(5H)-yl)ethanone] had a pIC50 under setting [1] of 7.17.

For `CCc1nc(C)ccc1OCC(=O)N1CCc2nc3sc(C)nn3c2C1c1ccc(Cl)cc1F` (stereo not shown) [Example 1.4.2, 1-(5-(4-chloro-2-fluorophenyl)-2-methyl-7,8-dihydro-[1,3,4]thiadiazolo[2′,3′:2,3]imidazo[4,5-c]pyridin-6(5H)-yl)-2-((2-ethyl-6-methylpyridin-3-yl)oxy)ethanone], the pIC50 under setting [1] is 7.89.

As for `Cc1nn2c3c(nc2s1)CCN(C(=O)COc1ccc(NS(C)(=O)=O)nc1Cl)C3c1ccc(OCCO)cc1F` (stereo not shown) [Example 1.84.2, N-(6-Chloro-5-(2-(5-(2-fluoro-4-(2-hydroxyethoxy)phenyl)-2-methyl-7,8-dihydro-[1,3,4]thiadiazolo[2′,3′:2,3]imidazo[4,5-c]pyridin-6(5H)-yl)-2-oxoethoxy)pyridin-2-yl)methanesulfonamide], under setting [2], the pIC50 is 7.80.

Under setting [1], `Cc1nn2c3c(nc2s1)CCN(C(=O)COc1ccc[n+]([O-])c1Cl)C3c1ccc(C2CC2)cc1F` (stereo not shown) [Example 1.6.19, 2-chloro-3-(2-(5-(4-cyclopropyl-2-fluorophenyl)-2-methyl-7,8-dihydro-[1,3,4]thiadiazolo[2′,3′:2,3]imidazo[4,5-c]pyridin-6(5H)-yl)-2-oxoethoxy)pyridine-1-oxide] showed a pIC50 of 6.60.

For the compound `Cc1nn2c3c(nc2s1)CCN(C(=O)COc1ccc(C(=O)N(C)C)nc1Cl)C3c1ncc(C(=O)N(C)C)s1` (stereo not shown) [Example 1.37.4, 2-(6-(2-((2-Chloro-6-(dimethylcarbamoyl)pyridin-3-yl)oxy)acetyl)-2-methyl-5,6,7,8-tetrahydro-[1,3,4]thiadiazolo[2′,3′:2,3]imidazo[4,5-c]pyridin-5-yl)-N,N-dimethylthiazole-5-carboxamide], under setting [2], the pIC50 is 7.40.

On to `CCc1nc(N2CCCS2(=O)=O)ccc1OCC(=O)N1CCc2nc3sc(C(F)(F)F)nn3c2C1c1ccc(Cl)cc1F` (stereo not shown) [Example 5.1.3, 1-(5-(4-chloro-2-fluorophenyl)-2-(trifluoromethyl)-7,8-dihydro-[1,3,4]thiadiazolo[2′,3′:2,3]imidazo[4,5-c]pyridin-6(5H)-yl)-2-((6-(1,1-dioxidoisothiazolidin-2-yl)-2-ethylpyridin-3-yl)oxy)ethanone], for which the pIC50 was 8.00.

For the compound `Cc1nn2c3c(nc2s1)CCN(C(=O)COc1ccc(NS(C)(=O)=O)nc1Cl)C3c1ncc(Cl)cc1F` (stereo not shown) [Example 1.33.6, N-(6-chloro-5-(2-(5-(5-chloro-3-fluoropyridin-2-yl)-2-methyl-7,8-dihydro-[1,3,4]thiadiazolo[2′,3′:2,3]imidazo[4,5-c]pyridin-6(5H)-yl)-2-oxoethoxy)pyridin-2-yl)methanesulfonamide], under setting [1], the pIC50 is 8.22.

For the compound `COC(=O)c1cnc(C2c3c(nc4sc(C)nn34)CCN2C(=O)COc2ccc(NS(=O)(=O)C3CC3)nc2Cl)s1` (stereo not shown) [Example 1.28.3, Methyl 2-(6-(2-((2-chloro-6-(cyclopropanesulfonamido)pyridin-3-yl)oxy)acetyl)-2-methyl-5,6,7,8-tetrahydro-[1,3,4]thiadiazolo[2′,3′:2,3]imidazo[4,5-c]pyridin-5-yl)thiazole-5-carboxylate], the pIC50 under setting [1] is 7.35.

With `O=C(COc1ccc(-c2ncco2)nc1Cl)N1CCc2nc3sc(C4CC4)nn3c2C1c1ccc(Cl)cc1F` (stereo not shown) [Example 4.1.3, 1-(5-(4-chloro-2-fluorophenyl)-2-cyclopropyl-7,8-dihydro-[1,3,4]thiadiazolo[2′,3′:2,3]imidazo[4,5-c]pyridin-6(5H)-yl)-2-((2-chloro-6-(oxazol-2-yl)pyridin-3-yl)oxy)ethanone], the pIC50 under setting [1] was 7.89.

`COc1ccc(C2c3c(nc4sccn34)CCN2C(=O)COc2ccc(Cl)cc2Cl)cc1OC` (stereo not shown) [Example 6.1.3, 2-(2,4-dichlorophenoxy)-1-(5-(3,4-dimethoxyphenyl)-7,8-dihydrothiazolo[2′,3′:2,3]imidazo[4,5-c]pyridin-6(5H)-yl)ethanone] had a pIC50 under setting [1] of 8.15.

As for `Cc1nn2c3c(nc2s1)CCN(C(=O)COc1ccc(N(C)C)nc1Cl)C3c1ccc(C2CC2)cc1F` (stereo not shown) [Example 1.6.22, 2-((2-chloro-6-(dimethylamino)pyridin-3-yl)oxy)-1-(5-(4-cyclopropyl-2-fluorophenyl)-2-methyl-7,8-dihydro-[1,3,4]thiadiazolo[2′,3′:2,3]imidazo[4,5-c]pyridin-6(5H)-yl)ethanone], under setting [1], the pIC50 was 8.52.

Under setting [1], `Cc1nc(C)c(C2c3c(nc4sc(C)nn34)CCN2C(=O)COc2ccc(C(=O)N(C)C3CC3)nc2Cl)s1` (stereo not shown) [Example 1.68.4, 6-chloro-N-cyclopropyl-5-(2-(5-(2,4-dimethylthiazol-5-yl)-2-methyl-7,8-dihydro-[1,3,4]thiadiazolo[2′,3′:2,3]imidazo[4,5-c]pyridin-6(5H)-yl)-2-oxoethoxy)-N-methylpicolinamide] showed a pIC50 of 7.72.

The compound `Cc1nn2c3c(nc2s1)CCN(C(=O)COc1ccc(N2CCOCC2)nc1Cl)C3c1coc(-c2ccccc2)n1` (stereo not shown) [Example 1.12.1, 2-((2-chloro-6-morpholinopyridin-3-yl)oxy)-1-(2-methyl-5-(2-phenyloxazol-4-yl)-7,8-dihydro-[1,3,4]thiadiazolo [2′,3′:2,3]imidazo[4,5-c]pyridin-6(5H)-yl)ethanone] showed a pIC50 under setting [1] of 7.85.

The compound `Cc1nn2c3c(nc2s1)CCN(C(=O)COc1ccc(N2CCOCC2)nc1Cl)C3c1sc(-c2nnn[nH]2)cc1F` (stereo not shown) [Example 1.70.1, 2-((2-Chloro-6-morpholinopyridin-3-yl)oxy)-1-(5-(3-fluoro-5-(1H-tetrazol-5-yl)thiophen-2-yl)-2-methyl-7,8-dihydro-[1,3,4]thiadiazolo[2′,3′:2,3]imidazo-[4,5-c]pyridin-6(5H)-yl)ethanone] had a pIC50 under setting [2] of 7.89.

The compound `Cc1nn2c3c(nc2s1)CCN(C(=O)COc1ccc(C(=O)N(C)C)nc1Cl)[C@H]3c1sc(C(=O)N(C)C)cc1F` [Example 1.24.11] had a pIC50 under setting [1] of 8.40.

`CNC(=O)c1ccc(OCC(=O)N2CCc3nc4sccn4c3C2c2sccc2F)c(Cl)n1` (stereo not shown) [Example 6.8.3, 6-chloro-5-(2-(5-(3-fluorothiophen-2-yl)-7,8-dihydro-thiazolo[2′,3′:2,3]imidazo[4,5-c]pyridin-6(5H)-yl)-2-oxoethoxy)-N-methylpicolinamide] gave a pIC50 under setting [1] of 8.05.

In the case of `CCc1nc(NS(C)(=O)=O)ccc1OCC(=O)N1CCc2nc3sc(CF)nn3c2C1c1sc(C)nc1C` (stereo not shown) [Example 7.4.2, N-(5-(2-(5-(2,4-dimethylthiazol-5-yl)-2-(fluoromethyl)-7,8-dihydro-[1,3,4]thiadiazolo[2′,3′:2,3]imidazo[4,5-c]pyridin-6(5H)-yl)-2-oxoethoxy)-6-ethylpyridin-2-yl)methanesulfonamide], the pIC50 under setting [1] was 8.15.

In turn, `Cc1nn2c3c(nc2s1)CCN(C(=O)COc1ccc(N2CCOCC2)nc1Cl)C3c1nc(C(=O)O)cs1` (stereo not shown) [Example 1.41.1, 2-(6-(2-((2-chloro-6-morpholinopyridin-3-yl)oxy)acetyl)-2-methyl-5,6,7,8-tetrahydro-[1,3,4]thiadiazolo[2′,3′:2,3]imidazo[4,5-c]pyridin-5-yl)thiazole-4-carboxylic acid] showed a pIC50 under setting [2] of 7.19.

Compound `Cc1cnc(C2c3c(nc4sc(C)nn34)CCN2C(=O)COc2ccc(C(=O)N(C)C)nc2Cl)c(F)c1` (stereo not shown) [Example 1.31.7, 6-chloro-5-(2-(5-(3-fluoro-5-methylpyridin-2-yl)-2-methyl-7,8-dihydro-[1,3,4]thiadiazolo[2′,3′:2,3]imidazo[4,5-c]pyridin-6(5H)-yl)-2-oxoethoxy)-N,N-dimethylpicolinamide] had a pIC50 under setting [1] of 8.22.
